Data as given in US7056908B2, “Pharmaceutical compositions and methods for preventing skin tumor formation and causing regression of existing tumors” (priority 1991, dated 2006).

Experiments:
308 cells [1] = assay: Cornified envelope formation in 308 cells; format: cell-based, mouse; conditions: 1.4 mM Ca2+ medium, 3 days
Method: Cornified Envelope Quantitation. Keratinocytes were analyzed for cornified envelope formation as described (Nagae, S. et al, “Effect of retinoic acid on cornified envelope formation: difference between spontaneous envelope formation in vivo or in vitro and expression of envelope competence,” J. Invest., Dermatol., 89: 51–58, 1987), with minor modifications. Floating cells were harvested by collecting culture medium from each 60 mm dish and combining with two washes using phosphate-buffered saline without Ca^2+ and Ms^+2 (PBS). Cells were pelleted for 5 minutes at 1000 rpm in a benchtop clinical centrifuge and resuspended in 100 μl of lysis buffer (2% sodium dodecyl sulfate (SDS) and 20 mM dithiothreitol in PBS). Attached cells were harvested in 250 μl lysis buffer, combined with the preparation of floating cells, and incubated at 95° for 10 minutes. The non-solubilized, intact cornified envelopes, characteristic of terminally differentiated keratinocytes, were counted using a hemocytometer (Nagae, S. et al, “Effect of retinoic acid on cornified envelope formation: difference between spontaneous envelope formation in vivo or in vitro and expression of envelope competence,” J. Invest. Dermatol., 89: 51–58, 1987).
Cornified envelope formation was also determined in cultures of staurosporine-treated neoplastic cells. […]

SP-1 cells = assay: Morphological differentiation of SP-1 neoplastic keratinocyte cell line; format: cell-based, mouse; conditions: for morphological changes: 24 hours, 10 nM staurosporine or 160 nM TPA
308 cells [2] = assay: Morphological differentiation of 308 neoplastic keratinocyte cell line; format: cell-based, mouse; conditions: for morphological changes: 24 hours, 10 nM staurosporine or 160 nM TPA
primary keratinocytes [3] = format: cell-based, mouse
Method: EGF binding was assessed in 6-well tissue culture dishes plated at a cell density of 2.5×10^6 cells/well (Strickland, J. E. et al, “Interaction of epidermal growth factor with basal and differentiating epidermal cells of mice resistant and sensitive to carcinogenesis,” Carcinogenesis, 5: 735–740, 1984). […] A second set of cultures received, in addition, 1 μg/ml unlabelled EGF to assess non-specific binding of radioactive ligand. Following the incubation period, cultures were washed 4 times with ice-cold binding buffer, harvested in 1.5 ml lysis buffer (0.1 M tris (pH 7.4), 0.5% SDS, 1 mM EDTA), and radioactivity determined by scintillation counting.
Exposure of a variety of cultured cell types to TPA results in inhibition of EGF binding which is attributed to PKC-mediated phosphorylation of the EGF receptor (Diamond, L., “Tumor promoters and cell transformation,” In: D. Grunberger and S. P. Goff. (eds.), Mechanisms of Cellular Transformation by Carcinogenic Agents, pp. 73–133, New York: Pergamon Press. 1987).
Each point is the mean of trilpicate dishes±standard error of the mean.

40 kD protein (pp40) = assay: 32P phosphoprotein analysis in digitonin-permeabilized keratinocytes; format: cell-based, mouse; conditions: for phosphorylation of band at about 40 kD (pp40): 160 nM TPA or 10 nM staurosporine
Method: Cell Permeabilization and ^32P-Labelled Phosphoprotein Analysis. Primary mouse keratinocytes were permeabilized with digitonin to facilitate uptake of ^32P-ATP essentially as described (Erusalimsky, J. D. et al, “Diacylglycerols, and phorbol esters rapidly stimulate the phosphorylation of an Mr=80,000 protein kinase C substrate in permeabilized 3T3 cells,” J. Biol. Chem., 263: 19188–19194, 1988). To first assess the efficacy of permeabilization at different digitonin concentrations, 5–10 μg/ml of the DNA-binding fluorochrome propidium iodide (Jones, K. H. et al, “An improved method to determine cell viability by simultaneous staining with fluorescein diacetate-propidium iodide,” J. Histochem. Cytochem., 33: 77–79, 1985) was added to permeabilization buffer instead of labelled ATP. After incubation at 37° for 1–3 minutes, the buffer was removed and cells washed 3–4 times with PBS prior to fluorescence microscopy. […] Following ^32P-labelling, cells were immediately harvested and lysates subject to SDS/8.5% polyacrylamide gel electrophoresis. Approximate molecular weights were determined using pre-stained protein markers (Amersham, Arlington Heights, Ill.). Dried gels were exposed to Kodak X-Omat AR film at −70° prior to development.
Cells were harvested immediately and proteins separated by SDS/PAGE. Dried gels were exposed to Kodak X-Omat AR film at −70° for 12–24 hours prior to development.

primary keratinocytes [4] = assay: Cornified envelope formation in primary keratinocytes; format: cell-based, mouse; conditions: 10 nM staurosporine or 160 nM TPA for 24 hours; 7 day old cultures
Method: Floating and attached cell populations were harvested and cornified envelopes isolated. Data are mean values for three separate dishes±standard error of the mean from one experiment.
7 day old primary keratinocytes were cultured with or without 60 nM bryostatin for 15 hours. […] Each data bar is the average value from duplicate dishes with the range indicated by error bars.

primary keratinocytes [5] = assay: Ornithine decarboxylase activity in primary keratinocytes; format: cell-based, mouse; conditions: 5 hours exposure
Method: Enzyme Assays. Activity of epidermal transglutaminase was determined by measuring cross-linking of ^3H-putrescine to dimethylcasein (20). Cell lysates were incubated at […] for 10 minutes to inactivate tissue transglutaminase. Ornithine decarboxylase activity of cell lysates was determined by quantifying release of ^14CO2 from ^14C-ornithine (Sako, T. et al, “Partial parallelism and partial blockade by bryostatin 1 of effects of phorbol ester tumor promoters on primary mouse epidermal cells,” Cancer Res., 47: 5445–5450, 1987).
Each point is the mean for four dishes±standard error of the mean from one experiment. Similar results were obtained in an additional experiment. As with staurosporine-mediated induction of transglutaminase, this response is restricted to a narrow dose range between 5 and 10 nM.

primary keratinocytes [6] = assay: Cell toxicity by trypan blue exclusion; format: cell-based, mouse
Method: Miscellaneous Assays. Cell toxicity was determined using trypan blue exclusion as a marker for viable cells. Cells growing in 60 mm culture dishes were washed once with PBS, incubated at room temperature with 1 ml 0.4% trypan blue in normal saline (GIBCO, Rockville, Md.), washed twice with PBS, then placed on ice until cells were counted. Protein in cell lysates was determined using a commercial colorimetric assay (Bio-Rad Laboratories, Richmond, Calif.).
Phase-contrast photomicrographs were taken at the indicated times after beginning treatment. Similar results were obtained in three additional experiments. Magnification was ×90.

[7] = test system: human bladder carcinoma cells; conditions: systemic administration at 1/10 or 1/20 the maximum tolerated dose; cited from earlier work
[8] = test system: grafted SP-1 mouse papilloma cells; assay: Tumor formation from grafted SP-1 papilloma cells on nude mice, topical treatment; format: in vivo; conditions: 6.25 nmoles/treatment
Method: For grafting, BALB/c-derived nude mice, approximately two months-old, were used as hosts. Animals were anesthetized with Nembutal and sterile surgical technique was used. 0.5×10^6 SP-1 or 308 cells were grafted along with 6–8×10^6 primary SENCAR mouse dermal fibroblasts. […] Cells were removed from culture dishes by treatment with 0.25% trypsin-0.01% EDTA for approximately 10 min. at 36° and washed with medium. Suspensions of papilloma cells and primary dermal fibroblasts were centrifuged 5 min. at 1000 rpm, the medium aspirated, and the cell pellet applied to the graft bed using a sterile plastic transfer pipet. Graft tumors were measured weekly, using calipers, starting three weeks after grafting and for at least 5 additional weeks thereafter. As an approximate tumor volume, the height was multiplied by the smallest and largest lateral measurements. Data are expressed as means i standard error of the mean of approximate tumor volume in mm^3.
Five mice in each group were grafted Feb. 28, 1990 with 0.5×10^6 SP-1 cells+6×10^6 primary SENCAR mouse dermal fibroblasts.
Tumor measurements were begun three weeks after grafting and continued for eight weeks.
Ten mice in each group were grafted Mar. 22, 1990 with 0.5×10^6 SP-1 cells+6×10^6 primary SENCAR mouse dermal fibroblasts.
Ten mice in each group were grafted May 17, 1990 with 0.5×10^6 SP-1 cells+6×10^6 primary SENCAR mouse dermal fibroblasts. […]

[9] = doses ranging from 1.6 nM to 16 uM
[10] = morphological response to staurosporine

SMILES | cornified envelope formation (308 cells [1]; 160 nM TPA) | morphological changes (SP-1 cells) | inducing morphological differentiation (SP-1 cells; [9]) | morphological changes (308 cells [2]) | inducing morphological differentiation (308 cells [2]; [9]) | reduction of 125I-EGF binding relative to controls (primary keratinocytes [3]) | phosphorylation of band at about 40 kD (pp40) (40 kD protein (pp40); 3 minutes) | increase in cornified envelopes relative to control cultures (primary keratinocytes [4]) | induction of cornified envelopes (308 cells [1]; 10 nM staurosporine) | treatment time required for a maximal response (SP-1 cells; [10]) | ornithine decarboxylase activity (primary keratinocytes [5]) | cells trypan blue positive (primary keratinocytes [6]; 7.5 hour exposure to 1 μM staurosporine) | cells that took up trypan blue (primary keratinocytes [6]; ≦10 nM staurosporine) | treatment time required for a maximal response (308 cells [2]; [10]) | overall protein phosphorylation (40 kD protein (pp40); 10 nM staurosporine, 3 minutes) | effect of co-exposure on TPA-mediated phosphorylation of pp40 (40 kD protein (pp40); 160 nM TPA and 10 nM staurosporine) | inducing phosphorylation of pp40 (40 kD protein (pp40); additional doses ranging from 0.1 to 5 nM) | retardation of tumor growth [7] | effect of higher doses on papilloma growth [8]
CCCCCCCCCCCCCC(=O)O[C@@H]1[C@@H](C)[C@@]2(O)[C@@H](C=C(CO)C[C@]3(O)C(=O)C(C)=C[C@@H]23)[C@H]2C(C)(C)[C@]12OC(C)=O [TPA, 12-0-tetradecanoylphorbol-13-acetate, reference compound] | not induced | does not appreciably alter the appearance | ineffective | does not appreciably alter the appearance | ineffective | 94% | enhanced phosphorylation | 4 fold | – | – | – | – | – | – | – | – | – | – | –
CN[C@@H]1C[C@H]2O[C@@](C)([C@@H]1OC)n1c3ccccc3c3c4c(c5c6ccccc6n2c5c31)C(=O)NC4 [staurosporine] | – | morphological changes similar to those seen in primary cells | – | morphological changes similar to those seen in primary cells | – | – | not detected | – | 60 fold | at least 48 hours | induction of ornithine decarboxylase activity | 74% | < 5% | at least 48 hours | reduction in overall protein phosphorylation | blocked the TPA-mediated phosphorylation | ineffective | approximately 60% | appear to stimulate papilloma growth
